Test results as given in publication PMC5548701, “Selective targeting of melanoma using N-(2-diethylaminoethyl) 4-[^18F]fluoroethoxy benzamide (4-[^18F]FEBZA): a novel PET imaging probe” (EJNMMI Research, 2017).
pIC50: −log10 of the molar value. Entries after “also recorded” stand apart in the source; their conditions may differ. Like-named read-outs stand apart in the source and are kept apart here.

What was measured:
B16F1 cells = assay: homologous competitive binding assay on fixed B16F1 cells; parameters: species or system murine; settings: homologous competition with unlabeled 4-FEBZA, 1 h
Protocol: After adding 0.1 nmol of 4-[^18F]FEBZA/well as the radioligand, unlabeled 4-FEBZA (2) was added to the quadruplicate sets of wells in concentrations ranging from 10^−11 to 10^−4 M and the plates were incubated for an hour at 37 °C under 5% CO2. At the end of the incubation, the media were removed, and the cells were washed with 500 μL of ice-cold media. The cells were lysed using 1 mL of phosphate-buffered saline containing 10% Triton X-100, and the lysates were collected in culture tubes to measure the radioactivity contents using a γ-counter. We performed a non-linear regression analysis of the decay-corrected CPM values to calculate the inhibition constant value (IC50), the concentration of competitor required to inhibit 50% of radiotracer binding, utilizing the GraphPad Prism software program (GraphPad Software, Inc., CA).

[1] = test system: HT-29 human colorectal adenocarcinoma tumor xenografts; assay: biodistribution in mice bearing HT-29 tumor xenografts; format: in vivo, athymic nu/nu mice; settings: for tumor-to-brain tissue ratio: HT-29 group; for Adrenals %IA/g tissue (mean ± SD) / Blood %IA/g tissue (mean ± SD) / Bone %IA/g tissue (mean ± SD) / Brain %IA/g tissue (mean ± SD) / Heart %IA/g tissue (mean ± SD) / Kidneys %IA/g tissue (mean ± SD) / Liver %IA/g tissue (mean ± SD) / Lung %IA/g tissue (mean ± SD) / Muscles %IA/g tissue (mean ± SD) / Pancreas %IA/g tissue (mean ± SD) / Sm. Intestine %IA/g tissue (mean ± SD) / Spleen %IA/g tissue (mean ± SD): HT-29 tumor mice; for Tumor %IA/g tissue (mean ± SD): HT-29 tumor
Protocol: B16F1 melanoma cells, HT-29 human colorectal adenocarcinoma cells, and C-32 amelanotic melanoma cells were purchased from the American Type Culture Collection (ATCC, Rockville, MD). B16F1 murine melanotic melanoma cells were maintained in Dulbecco’s modified Eagles medium supplemented with 10% fetal calf-serum, 2 mM L-glutamine, and 1 mM pyruvate. HT-29 and C-32 cells were maintained in RPMI supplemented with 10% fetal calf serum and 2 mM L-glutamine. C57BL/6 and athymic nu/nu mice were purchased from Charles River Laboratories (Charles River Laboratories, Boston, MA). All animal studies were performed using an IACUC-approved protocol, and the work was performed under the guidelines established by Wake Forest University. The cells were grown to confluency, harvested, washed with phosphate-buffered saline and then were suspended in a 1:1 mixture of phosphate-buffered saline and Matrigel (BD Life Sciences, San Jose, CA) at a concentration of 5 × 10^6 cells/mL. For subcutaneous tumor xenografts, […] in the right flank with 100 μL of a suspension of B16F1 cells, and female athymic nu/nu mice were injected in the right flank with 100 μL of HT-29 cells or C-32 cells.
(§1) The biodistribution studies were performed in mice bearing B16F1 (1 h n = 5; 2 h n = 6), C-32 (1 h n = 3; 2 h n = 3), and HT-29 (1 h n = 3; 2 h n = 3) tumor xenografts. The tumor-bearing mice were injected with ~40 μCi of 4-[^18F]FEBZA. A separate group of normal C57BL/6 mice with no tumor implants (1 h n = 3; 2 h n = 3) was also injected with ~40 μCi of 4-[^18F]FEBZA to study the distribution characteristics of 4-[^18F]FEBZA in the absence of tumors. At 1 h and 2 h post-injection, the mice were euthanized, and the tissues of interest were removed, rinsed with PBS, weighed, and counted for radioactivity contents using a γ-counter.

[2] = biodistribution in normal mice with no tumor implants; format: in vivo, C57BL/6 mice; settings: 1 h
Protocol: as §1

B16F1 tumor = assay: microPET imaging in mice bearing B16F1 tumor; format: in vivo
Protocol: (§2) In vivo imaging of 4-[^18F]FEBZA in mice bearing B16F1 (n = 2) and HT-29 (n = 1) tumor was performed using a P4 microPET™ scanner (Concorde Microsystems, Inc., Knoxville, TN). After administering ~100 μCi of 4-[^18F]FEBZA via tail-vein injection, whole body PET scans were acquired in list mode. The images were reconstructed using filtered back projection with attenuation correction. Regions Of Interest (ROIs) were drawn on select organs using the summed image from the entire scan acquisition session, and the data were analyzed using ASIPro software (Siemens Preclinical Solutions, Knoxville, TN). The time activity curves (TACs) were generated from the list mode data reconstructed into multiple 5-min frames.

HT-29 tumor = assay: microPET imaging in mouse bearing HT-29 tumor; format: in vivo, mice
Protocol: as §2

SMILES: CCN(CC)CCNC(=O)c1ccc(OCC[18F])cc1 [4-[^18F]FEBZA, N-(2-diethylaminoethyl) 4-[^18F]fluoroethoxybenzamide]
- pIC50 (B16F1 cells; read-out: IC50, first of two distinct binding sites): 8.74
- pIC50 (B16F1 cells; read-out: IC50, second of two distinct binding sites): 5.89
- tumor-to-brain tissue ratio ([1]; 1 h): 2.19 ± 0.04
- tumor-to-brain tissue ratio ([1]; 2 h): 2.04 ± 0.19
- tumor-to-muscle ratio ([1]; HT-29 mice group, 2 h): 2.21 ± 0.17
- Adrenals %IA/g tissue (mean ± SD) ([1]; 1 h post-injection): 1.07 ± 0.08 %IA/g tissue
- Blood %IA/g tissue (mean ± SD) ([1]; 1 h post-injection): 2.80 ± 0.26 %IA/g tissue
- Bone %IA/g tissue (mean ± SD) ([1]; 1 h post-injection): 3.83 ± 0.39 %IA/g tissue
- Brain %IA/g tissue (mean ± SD) ([1]; 1 h post-injection): 1.68 ± 0.18 %IA/g tissue
- Heart %IA/g tissue (mean ± SD) ([1]; 1 h post-injection): 2.52 ± 0.12 %IA/g tissue
- Kidneys %IA/g tissue (mean ± SD) ([1]; 1 h post-injection): 2.91 ± 0.24 %IA/g tissue
- Liver %IA/g tissue (mean ± SD) ([1]; 1 h post-injection): 4.84 ± 0.95 %IA/g tissue
- Lung %IA/g tissue (mean ± SD) ([1]; 1 h post-injection): 2.19 ± 0.33 %IA/g tissue
- Muscles %IA/g tissue (mean ± SD) ([1]; 1 h post-injection): 1.61 ± 0.28 %IA/g tissue
- Pancreas %IA/g tissue (mean ± SD) ([1]; 1 h post-injection): 2.41 ± 0.26 %IA/g tissue
- Sm. Intestine %IA/g tissue (mean ± SD) ([1]; 1 h post-injection): 1.98 ± 0.62 %IA/g tissue
- Spleen %IA/g tissue (mean ± SD) ([1]; 1 h post-injection): 2.11 ± 0.25 %IA/g tissue
- Adrenals %IA/g tissue (mean ± SD) ([1]; 2 h post-injection): 0.91 ± 0.19 %IA/g tissue
- Blood %IA/g tissue (mean ± SD) ([1]; 2 h post-injection): 2.29 ± 0.23 %IA/g tissue
- Bone %IA/g tissue (mean ± SD) ([1]; 2 h post-injection): 5.71 ± 1.11 %IA/g tissue
- Brain %IA/g tissue (mean ± SD) ([1]; 2 h post-injection): 1.52 ± 0.28 %IA/g tissue
- Heart %IA/g tissue (mean ± SD) ([1]; 2 h post-injection): 2.19 ± 0.37 %IA/g tissue
- Kidneys %IA/g tissue (mean ± SD) ([1]; 2 h post-injection): 2.08 ± 0.29 %IA/g tissue
- Liver %IA/g tissue (mean ± SD) ([1]; 2 h post-injection): 2.50 ± 0.29 %IA/g tissue
- Lung %IA/g tissue (mean ± SD) ([1]; 2 h post-injection): 1.63 ± 0.16 %IA/g tissue
- Muscles %IA/g tissue (mean ± SD) ([1]; 2 h post-injection): 1.40 ± 0.24 %IA/g tissue
- Pancreas %IA/g tissue (mean ± SD) ([1]; 2 h post-injection): 1.56 ± 0.18 %IA/g tissue
- Sm. Intestine %IA/g tissue (mean ± SD) ([1]; 2 h post-injection): 1.42 ± 0.10 %IA/g tissue
- Spleen %IA/g tissue (mean ± SD) ([1]; 2 h post-injection): 1.51 ± 0.12 %IA/g tissue
- Tumor %IA/g tissue (mean ± SD) ([1]; 1 h post-injection): 3.68 ± 0.47 %IA/g tissue
- Tumor %IA/g tissue (mean ± SD) ([1]; 2 h post-injection): 3.07 ± 0.36 %IA/g tissue
- bone uptake ([2]; mice with no tumor): 3.23 ± 0.24 %IA/g
- blood uptake ([2]; mice without implanted tumor): 2.81 ± 0.31 %IA/g
- brain uptake ([2]; mice without implanted tumor): 2.46 ± 0.41 %IA/g
- liver uptake ([2]; mice without implanted tumor): 4.11 ± 0.63 %IA/g
- lungs uptake ([2]; mice without implanted tumor): 2.52 ± 0.47 %IA/g
- muscle uptake ([2]; mice without implanted tumor): 1.10 ± 0.13 %IA/g
- time post-injection by which tumor is clearly visible on microPET images (B16F1 tumor; B16F1 melanoma tumor): ≤ 10 min
- standardized uptake value (SUV) of tumor from microPET images (B16F1 tumor; B16F1 tumor): 1.53 ± 1.01
- radioactivity level in B16F1 tumor from microPET time activity curve (B16F1 tumor; by 47 min): over 3.5 %IA/g tumor
- standardized uptake value (SUV) of tumor from microPET images (HT-29 tumor): 0.25 ± 0.04
- visibility of tumor on microPET scans (HT-29 tumor): not visible; also recorded: not discernable
